Among the data in patent publication US10781209B2, “1H-pyrrolo[2,3-c]pyridin-7(6H)-ones and pyrazolo[3,4-c]pyridin-7(6H)-ones as inhibitors of BET proteins” (Incyte Corporation, priority 2014, dated 2020) are IC50 values, retold here.

Structures are written as SMILES.

The assay relates to KMS.12.BM cells. Description: KMS.12.BM cell viability assay (Cell Titer-GLO, ATP quantitation). The class given is cell-based. The following applies: 72 h, human myeloma cell line, 3 days, concentration required for 50% cell death. On the procedure: KMS.12.BM cell line (human myeloma) was purchased from JCRB (Osaka, Japan) and maintained in RPMI with 10% FBS culture medium. To measure the cytotoxic activity of the compounds through ATP quantitation, the KMS.12.BM cells are plated in the RPMI culture medium at 5000 cells/well/per 100 μL into a 96-well polystyrene clear black tissue culture plate (Greiner-bio-one through VWR, NJ), in the presence or absence of a concentration range of test compounds. After 3 days, […] Cell Titer-GLO Luminescent (Promega, Madison, Wis.) cell culture agent is added to each well for 10 minutes at room temperature to stabilize the luminescent signal. This determines the number of viable cells in culture based on quantitation of the ATP present, which signals the presence of metabolically active cells. Luminescence is measured with the Top Count 384 (Packard Bioscience through Perkin Elmer, Boston, Mass.). Compound inhibition is determined relative to cells cultured with no drug and the IC50 is reported as the compound concentration required for 50% cell death.

As to `Cn1cc(-c2cccc3c2OC(c2ccccn2)C(=O)N3)c2cc[nH]c2c1=O` (stereo not shown) [Example 5, 8-(6-methyl-7-oxo-6,7-dihydro-1H-pyrrolo[2,3-c]pyridin-4-yl)-2-pyridin-2-yl-2H-1,4-benzoxazin-3(4H)-one 2,2,2-trifluoroacetate], the 50% inhibitory concentration (IC50) (in general, the concentration at which inhibition is half-maximal) is ≤ 1 µM.
